Laboratory results: patent publication US20180179166A1, “SMALL MOLECULE INHIBITORS OF GP120-MEDIATED HIV INFECTION AND METHODS OF USE” (ViroCarb Inc., priority 2014, published 2018)
Where two headings read alike, the source gives them in different places.

What was measured:
[1] = test system: HIV-1IIIB virus (X4 tropism); test: Protocol 1: inhibition of HIV-1 in Jurkat T-cells, p24gag ELISA; type: cell-based; conditions: read-out: percent inhibitory activity
Method: HIV-1IIIB virus (X4 tropism) was pretreated with a control solution of DMSO or a given compound dissolved in DMSO to a final concentration of 100 μM for 1 hr at 37° C. Pretreated HIV-1 virus was then added (100 μl of 0.1 MOI) to 0.5×10^6 Jurkat (JKT C) T-cells in 100 μl RPMI media and incubated at 37° C. for an additional 1 hr with occasional mixing.
After 1 hour, the cells were centrifuged at 1000 rpm for 5 minutes and the cell pellet washed wash thrice with 2 ml Ca^2+ Mg^2+ free PBS. After the last wash, the cells were resuspended in medium and transferred to 12-well tissue culture plates and placed at 37° C.
On days 2 and 5 of culture, 0.5 ml aliquots of culture supernatant is collected and replaced with 0.5 ml of fresh medium. Aliquots are stored at −80° C. until ready for p24gag ELISA. ELISA for p24gag was done using ELISA plates from Zeptometrix using a standard protocol.

JR-FL-R5 virus = test: Example 6: U87.CD4.CCR5 cells infected with replication-deficient luciferase HIV strain; type: cell-based; conditions: Human immunodeficiency virus 1, U87/CD4/CCR5, 48 h, read-out: % HIV inhibitory activity
Method: Methods. U87.CD4.CCR5 cells (2.5×10^4/well) were seeded overnight and then infected with a replication-deficient HIV strain containing a luciferase insertion in the nef gene (JR-FL-R5 virus). JR-FL-R5 virus was pre-incubated with each compound for 1 hour prior to infection. After two days, the cells were washed, lysed and measured for luciferase activity, which is indicative of viral integration and/or transcription. Compounds were tested in quadruplicates.

[2] = test system: HIV-1 BaL virus (R5 tropism); test: Protocol 2: inhibition of HIV-1 in PBMC, virus pre-treated with compound, p24gag ELISA; type: cell-based; conditions: Human immunodeficiency virus 1, 144 h, 100 μM compound, HIV-1 BaL (R5), day 6, read-out: percent inhibitory activity
Method: The protocol involves PBMCs which were purified by centrifugation at 500 g using Ficoll-Paque™ reagent. The cells were re-suspended in RPMI (10% FBS, 2 ug/ml PHA, 20 U/ml of IL-2) and incubated at 37° C. in 5% CO2 for 3 days.
HIV-1 BaL virus (R5 tropism) was pre-treated with a control solution of DMSO or a given compound dissolved in DMSO to a final concentration of 20-100 μM for 1 hour at 37° C. Pretreated HIV-1 viruses were then added (100 μl of 0.1 MOI) to 5×10^5 PBMCs in 100 μl RPMI media and then incubated at 37° C. for an additional 1 hour with occasional mixing. After 1 hour, the cells were centrifuged at 1000 rpm for 5 minutes and the cell pellet washed wash thrice with 2 ml Ca^2+ Mg^2+ free PBS.
After the last wash, the cells are re-suspended in medium and transferred to 12-well tissue culture plates and place at 37° C.
On day 6 of culture, 0.5 ml aliquots of culture supernatant were collected. Aliquots were stored at −80° C. until ready for p24gag ELISA. ELISA for p24gag was done using ELISA plates from Zeptometrix using a standard protocol.

[3] = test system: HIV-BaL virus (R5 tropism); test: Protocol 3: inhibition of HIV-1 in TZM-bl reporter cells, luciferase, R5 virus; type: cell-based; conditions: Human immunodeficiency virus 1, BAL, read-out: percent inhibitory activity against R5; for inhibition at 200 µM: 200 μM compound
Method: (§1) HIV-BaL virus (R5 tropism) and HIV-1 IIIb virus (X4 tropism) were pretreated with a given compound dissolved in DMSO to a final concentration of 100-200 μM for 1 hr at 37° C. in 96 well tissue culture plates. The TZM-bl HIV reporter cell line (1×10^4/well) in 100 ul DMEM is then added to each well and the 96 well tissue culture plates are incubated at 37° C. in 5% CO2 incubator.
(§2) TZM-bl cells were obtained from the NIH AIDS Reagent Program (Germantown Md., USA). TZM-bl, previously designated JC53-bl (clone 13) is a HeLa cell line. The parental cell line (JC.53) stably expresses large amounts of CD4 and CCR5. The TZM-bl cell line was generated from JC.53 cells by introducing separate integrated copies of the luciferase and ß-galactosidase genes under control of the HIV-1 promoter. The TZM-bl cell line is highly sensitive to infection with diverse isolates of HIV-1. The TZM-bl indicator cell line enables simple and quantitative analysis of HIV using either ß-gal or luciferase as a reporter. It is maximally sensitive to HIV infection by including DEAE-dextran in the infection medium. […] Further information about TZM-bl cells can be found in U.S. Pat. No. 6,797,462, issued to Tranzyme Pharma.
(§3) After 48 hours, half of the medium was removed and replaced with commercially available reagents that contain lysing buffer and substrate for luciferase. After 2 minutes of lysis and incubation, the luciferase activity of the TZM-bl cell is read using a commercial luminometer. The readout is translated as relative light units (RLU).

[4] = test system: HIV-1 IIIb virus (X4 tropism); test: Protocol 3: inhibition of HIV-1 in TZM-bl reporter cells, luciferase, X4 virus; type: cell-based; conditions: Human immunodeficiency virus 1, IIIB, read-out: percent inhibitory activity against X4; for inhibition at 200 µM: 200 μM compound
Method: as §1, §2, §3

[5] = test system: HIV-BaL virus (R5 tropism); test: Protocol 4: inhibition of HIV-1 in U87.CD4.CCR5 cells, p24gag ELISA; type: cell-based; conditions: Human immunodeficiency virus 1, 96 h, day 4 post-infection, read-out: percent inhibitory activity; for inhibition at 20 µM: 20 μM compound
Method: U87.CD4.CCR5 cell lines (5×10^4/well) were seeded in 24 well plates overnight. HIV-BaL virus (R5 tropism) was pretreated with a control solution of DMSO or a given compound dissolved in DMSO to a final concentration of 20-200 μM for 1 hr at 37° C.
Pretreated HIV-1 virus was then added (100 μl of 0.1 MOI) to pre-plated U87.CD4.CCR5 cells in 200 μl DMEM media and then incubated at 37° C. for an additional 1 hour with occasional mixing.
After 1 hour, the cells in each well were washed with 1 ml Ca^2+ Mg^2+ free PBS three times. After the last wash, 1 ml of DMEM was added to each well. On day 4 post-infection, 0.2 ml aliquots of culture supernatant was collected. Aliquots were stored at −80° C. until ready for p24gag ELISA. ELISA for p24gag was done using ELISA plates from Zeptometrix using a standard protocol.

HIV BaL = test: Example 5: HIV inhibition in human PBMC infected first, then treated with compound; type: cell-based, HIV-1; conditions: read-out: % HIV inhibitory activity
Method: In this Example, Compounds #32 and #38 were tested using human peripheral blood mononuclear cells (PBMC). The protocol used is the same as that of Example 2—Protocol 2, delineated in detail, above.
Methods. Briefly, 5×10^5 activated PBMCs were used per well in a 12-well tissue culture plate. The PBMCs were infected with HIV BaL for 1 hour and washed 2× with RPMI medium. The PBMCs were then mixed with compound #32 or #38 at concentrations of 6.0 μM, 25 μM or 100 μM, with solutions containing 20U/m1 of IL-2.
At day 3-post infection, 500 μl of fresh medium containing appropriate concentration of compounds were added. The supernatants were harvested at day 8. The level of HIV infection was determined as described in protocol 2.

[6] = test system: HIV-1IIIB virus (X4 tropism); test: Protocol 1: inhibition of HIV-1 in Jurkat T-cells, p24gag ELISA; type: cell-based; conditions: Human immunodeficiency virus 1, 20 μM compound, HIV-1IIIB (X4), read-out: percent inhibitory activity
[7] = Human immunodeficiency virus 1, 100 μM compound, HIV-1IIIB (X4), Jurkat T-cells
[8] = 100 μM compound, TZM-bl cells, 48 hours
[9] = Human immunodeficiency virus 1, Jurkat
[10] = Human immunodeficiency virus 1, BAL, PBMC, 192 h

CCOC(=O)c1cnc(SCC(=O)Nc2cccc(C(=O)O)c2)nc1N [#1]
inhibition at 100 µM [1, 7]: 3%

O=C(Cn1c(-c2ccccn2)nc2ccccc21)N/N=C/C=C/c1ccccc1 [#51]
inhibition at 0.05 µM (JR-FL-R5 virus): 22%

Nc1cc(=O)[nH]c(SCC(=O)Nc2ccc(C(=O)O)cc2)n1 [#2]
inhibition at 100 µM [1, 7]: 88% | inhibition at 100 µM [2]: 30%

O=C(CSc1nnc(O)nc1O)N/N=C/c1ccc(-c2nccs2)cn1 [#47]
inhibition at 100 µM [3, 8]: 27% | inhibition at 100 µM [4, 8]: 29%

COC(=O)c1ccc(NC(=O)CCSc2nc(N)cc(=O)[nH]2)cc1 [#35]
inhibition at 20 µM [5]: 27%

O=C(CSc1nnc(O)nc1O)N/N=C/c1ccc(-c2nn[nH]n2)cn1 [#44]
inhibition at 20 µM [5]: 10%

Nc1cc(=O)[nH]c(SCC(=O)Nc2ccc([N+](=O)[O-])cc2)n1 [#27]
inhibition at 100 µM [1, 9]: 20%

O=C(CSc1nnc(O)nc1O)N/N=C/c1ccc(C(=O)O)cc1 [#3]
inhibition at 100 µM [1, 7]: 71% | inhibition at 100 µM [2]: 34%

O=C(CSc1nnc(O)nc1O)N/N=C/c1ccc(C(=O)O)cn1 [#42]
inhibition at 100 µM [3, 8]: 25% | inhibition at 100 µM [4, 8]: 25%

O=C(CSc1nnc(O)nc1O)N/N=C/c1ccc(O)c([N+](=O)[O-])c1 [#41]
inhibition at 100 µM [3, 8]: 14% | inhibition at 100 µM [4, 8]: 10%

O=C(CSc1nnc(O)nc1O)N/N=C/c1ccccn1 [#37]
inhibition at 100 µM [1, 7]: 45% | inhibition at 200 µM ([5]; 200 μM compound): 28%

Nc1cc(=O)[nH]c(SCC(=O)Nc2ccc(F)c(Cl)c2)n1 [#25]
inhibition at 100 µM [1, 9]: 18%

O=C(CSc1nnc(O)nc1O)N/N=C/C=C/c1ccccc1 [#38]
inhibition at 100 µM [1, 9]: 44% | inhibition at 100 µM ([3]; TZM-bl, 48 h): 73% | inhibition at 100 µM ([4]; TZM-bl, 48 h): 69% | inhibition at 6 µM (HIV BaL; [10]): 70% | inhibition at 25 µM (HIV BaL; [10]): 90% | inhibition at 100 µM (HIV BaL; [10]): 100% | inhibition at 2 µM (JR-FL-R5 virus): 30%

Nc1cc(=O)[nH]c(SCC(=O)Nc2cnc(C(=O)O)cn2)n1 [#30]
inhibition at 20 µM [5]: 19%

O=C(CSc1nnc(O)nc1O)N/N=C/c1cccnc1 [#40]
inhibition at 100 µM [3, 8]: 71% | inhibition at 100 µM [4, 8]: 57%

O=C(CC1CCS(=O)(=O)C1)N/N=C/C=C/c1ccccc1 (centres unmarked) [#49]
inhibition at 0.05 µM (JR-FL-R5 virus): 45%

O=C(CSc1nnc(O)nc1O)N/N=C/c1ccc(Br)cc1 [#39]
inhibition at 100 µM [1, 7]: 32% | inhibition at 100 µM [3, 8]: 15% | inhibition at 100 µM [4, 8]: 15%

Nc1cc(=O)[nH]c(SCC(=O)Nc2ccc(C(=O)O)cn2)n1 [#28]
inhibition at 20 µM [5]: 27%

COC(=O)c1cnc(NC(=O)CSc2nc(N)cc(=O)[nH]2)cn1 [#31]
inhibition at 20 µM [5]: 21%

Nc1cc(=O)[nH]c(SCC(=O)Nc2ccc(CC(=O)O)cc2)n1 [#32]
inhibition at 200 µM ([3]; TZM-bl cells, 48 hours): 94% | inhibition at 200 µM ([4]; TZM-bl cells, 48 hours): 61% | inhibition at 6 µM (HIV BaL; Human immunodeficiency virus 1, 192 h, 6.0 μM compound, human PBMC, HIV BaL, day 8): 54% | inhibition at 25 µM (HIV BaL; Human immunodeficiency virus 1, 192 h, 25 μM compound, human PBMC, HIV BaL, day 8): 65% | inhibition at 100 µM (HIV BaL; Human immunodeficiency virus 1, 192 h, 100 μM compound, human PBMC, HIV BaL, day 8): 82% | inhibition at 2 µM (JR-FL-R5 virus): 32% | inhibition at 20 µM [6]: 80%

CCOC(=O)Cc1ccc(NC(=O)CSc2nc(N)cc(=O)[nH]2)cc1 [#33]
inhibition at 20 µM [5]: 27%

CCOC(=O)c1ccc(/C=N/NC(=O)CSc2nnc(O)nc2O)nc1 [#43]
inhibition at 100 µM [3, 8]: 12% | inhibition at 100 µM [4, 8]: 16%

Nc1cc(=O)[nH]c(SCCC(=O)NCc2ccc(C(=O)O)cc2)n1 [#36]
inhibition at 20 µM [5]: 7% | inhibition at 20 µM [6]: 50%

CCOC(=O)c1ccc(NC(=O)CSc2nc(N)cc(=O)[nH]2)nc1 [#29]
inhibition at 20 µM [5]: 24% | inhibition at 20 µM [6]: 75%

Nc1cc(=O)[nH]c(SCC(=O)Nc2ccc3c(c2)OCO3)n1 [#21]
inhibition at 100 µM [2]: 40%

Nc1cc(=O)[nH]c(SCCC(=O)Nc2ccc(C(=O)O)cc2)n1 [#34]
inhibition at 200 µM ([3]; TZM-bl cells, 48 hours): 61% | inhibition at 200 µM ([4]; TZM-bl cells, 48 hours): 62% | inhibition at 20 µM [5]: 33%

O=C(Cc1nnc(O)nc1O)N/N=C/C=C/c1ccccc1 [#48]
inhibition at 0.05 µM (JR-FL-R5 virus): 28%
